Test results reported in patent US8883720B2, “Template-fixed beta-hairpin peptidomimetics with CXCR4 antagonizing activity” (Polyphor AG, priority 2008, dated 2014).
Numbered stars: 1 amine (or outer) side, 2 acyl side, 3 side chain; on linkers, the order of the positions; unused ones are H or OH. Bridge positions count the residues as written; N and C are the ends. Square brackets hold non-standard residues; d marks the D form. Peptide text beside a SMILES is read from it. Abu(3S-NH2) = C[C@H](N)[C@H](N)C(=O)O; Hpla = O=C(O)[C@@H](O)Cc1ccc(O)cc1; X1 = NCC[C@H](O[*:1])C(=O)[*:2]; Lac = C[C@H](O)C(=O)O

Tests used:
[1] = tested on: human red blood cells (hRBC); format: cell-based; details: red cells of human, 1 h
Description: 2.5. Hemolysis The depsipeptides were tested for their hemolytic activity against human red blood cells (hRBC). Fresh hRBC were washed three times with phosphate buffered saline (PBS) and centrifuged for 10 min at 2000×g. Compounds (100 μM) were incubated with 20% hRBC (v/v) for 1 h at 37° C. The final erythrocyte concentration was approximately 0.9×10^9 cells/mL. A value of 0% and 100% cell lyses, respectively, was determined by incubation of hRBC in the presence of PBS alone and 0.1% Triton X-100 in H2O, respectively. The samples were centrifuged, the supernatants were 20-fold diluted in PBS buffer and the optical densities (OD) were measured at 540 nm. The 100% lyses value (OD540H2O) gave an OD540 of approximately 1.3-1.8. Percent hemolysis was calculated as follows: (OD540peptide/OD540H2O)×100%.

human CXCR4 = biological target: T1, human CXCR4 (Homo sapiens, UniProt P61073); assay: Ca2+-assay: CXCR4-antagonizing activity (SDF-1 induced calcium mobilization); format: cell-based; details: mouse pre-B cell line 300-19 stably transfected with human CXCR4, read-out: IC50% [nM] ± SD, CXCR4 receptor
T1 construct: expressed in transfected cells; host or cells: mouse pre-B cell line 300-19
T1 sequence (P61073 whole entry): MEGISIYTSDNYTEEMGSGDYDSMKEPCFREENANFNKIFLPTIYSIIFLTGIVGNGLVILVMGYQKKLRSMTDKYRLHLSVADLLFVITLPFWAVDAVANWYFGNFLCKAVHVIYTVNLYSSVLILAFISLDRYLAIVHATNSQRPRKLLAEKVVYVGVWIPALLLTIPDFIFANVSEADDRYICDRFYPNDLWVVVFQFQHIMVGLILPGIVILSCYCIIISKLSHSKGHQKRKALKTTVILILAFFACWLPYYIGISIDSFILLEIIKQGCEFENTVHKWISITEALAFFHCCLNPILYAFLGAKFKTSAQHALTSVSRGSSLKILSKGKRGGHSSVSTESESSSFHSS
From the text: 2.3. Ca^2+-Assay: CXCR4-Antagonizing Activity of the Depsipeptides
Increases in intracellular calcium were monitored using a Flexstation 384 (Molecular Devices, Sunnyvale, Calif.) to assay the depsipeptides for CXCR4 antagonism in a mouse pre-B cell line 300-19 stably transfected with human CXCR4 (E. Oberlin, A. Amara, F. Bachelerie, C. Bessia, J.-L. Virelizier, F. Arenzana-Seisdedos, O. Schwartz, J.-M. Heard, I. Clark-Lewis, D. F. Legler, M. Loetscher, M. Baggiolini, B. Moser, Nature 1996, 382, 833-835; M. Loetscher, T. Geiser, T. O'Reilly, R. Zwalen, M. Baggiolini, B. Moser, J. Biol. Chem. 1994, 269, 232-237; M. D'Apuuo, A. Rolink, M. Loetscher, J. A. Hoxie, I. Clark-Lewis, F. Melchors, M. Baggiolini, B. Moser, Eur. J. Immunol. 1997, 27, 1788-1793). The cells were batch loaded with the Calcium 4 Assay kit (Molecular Devices) in assay buffer (Hanks Balanced salt solution [HBSS], 20 mM HEPES, pH 7.4, 0.1% BSA) for 1 h at room temperature and labeled cells were dispensed into black well assays plates (Costar No. 3603). Calcium mobilization induced by stromal-derived factor-1 (SDF-1) was measured in the Flexstation 384 (excitation: 485 nm; emission: 525 nm) for 90 seconds. Antagonist activity of depsipeptides was determined by spiking the cells with compounds prior to SDF-1 addition. Dose response curves (compound concentration versus % maximum response for SDF-1) were determined for each antagonist and IC50 values were calculated by fitting the data to a four parameter logistic equation using SoftmaxPro 4.8 (Molecular Devices).

[2] = Plasma stability, human plasma; format: in vitro ADME; details: 37° C., sampled up to 240 min; for half-life at 10 μM: read-out: Plasmastability human pl. T1/2
Description: (§1) The stability of the depsipeptides in human and mouse plasma was determined by applying the following method: 315 μL/deep well of freshly thawed human plasma (Basler Blutspende-dienst) and mouse plasma (Harlan Sera-Lab, UK), respectively, were spiked with 35 μL/well of compound in PBS (100 μM, triplicate) and incubated at 37° C. At t=0, 15, 30, 60, 120 and 240 min aliquots of 50 μL were transferred to filtration plate wells containing 150 μL/well of acetonitrile. Following shaking for 2 min the occurred suspensions were filtrated by vacuum and finally, 100 μL of each filtrate were transferred to a propylene microtiter plate, and analyzed by LC/MS as follows: Column: Waters, XBridge C18, mobile phases: (A) water+0.1% formic acid and (B) acetonitrile/water, 95/5 (v/v)+0.1% formic acid, gradient: 5%-100% (B) in 2 minutes, electrospray ionization, MRM detection (triple quadrupole). The peak areas were determined and triplicate values are averaged. The stability is expressed in percent of the initial value at t=0. (tx/t0×100). By using the TREND function of EXCEL (Microsoft Office 2003) T1/2 were determined.

[3] = Plasma stability, mouse plasma; format: in vitro ADME; details: 37° C., sampled up to 240 min; for half-life at 10 μM: read-out: Plasmastability mouse pl. T1/2
Description: as §1

in vitro = format: cell-based
Description: The cytotoxicity of the depsipeptides to HELA cells (Acc57) and COS-7 cells (CRL-1651) was determined using the MTT reduction assay (T. Mossman, J. Immunol. Meth. 1983, 65, 55-63; M. V. Berridge, A. S. Tan, Arch. Biochem. Biophys. 1993, 303, 474-482). Briefly, the method was as follows: 7000 HELA cells/well and 4500 COS-7 cells/well were seeded and grown in 96-well microtiter plates for 24 h at 37° C. at 5% CO2. Thereafter, time zero (Tz) was determined by MTT reduction (see below). The supernatant of the remaining wells was discarded, and fresh medium and compounds in serial dilutions (12.5, 25 and 50 μM, triplicates) were pipetted into the wells. After incubation of the cells for 48 h at 37° C. at 5% CO2 the supernatant was discarded again and 100 μL MTT reagent (0.5 mg/mL in RPMI1640 and DMEM, respectively)/well was added. Following incubation at 37° C. for 2 h the media were aspirated and the cells were spiked (100 μL isopropanol/well). The absorbance of the solubilized formazan was measured at 595 nm (OD595peptide). For each concentration averages were calculated from triplicates. The percentage of growth was calculated as follows: (OD595peptide-OD595Tz-OD595Empty well)/(OD595Tz-OD595Empty well)×100%. The GI50 (Growth Inhibition) concentrations were calculated for each depsipeptide by using a trend line function for the concentrations (50, 25, 12.5 and 0 μM), the corresponding percentages and the value 50, (=TREND (C50:C0, %50:%0, 50).

SMILES	IC50 (human CXCR4) [nM]	half-life at 10 μM [2] [h]	half-life at 10 μM [3] [h]	GI50 at 48 h (in vitro; African green monkey) [µM]	GI50 at 48 h (in vitro; human) [µM]	Plasmastability human pl. T1/2 [2] [h]	Plasmastability mouse pl. T1/2 [3] [h]	Hemolysis at 100 μM [1] [%]
C[C@@H]1NC(=O)[C@H](CCN)OC(=O)[C@H](Cc2ccc(O)cc2)NC(=O)[C@@H]2CCCN2C(=O)[C@H]2CCCN2C(=O)[C@H](CCCCN)NC(=O)[C@H](CCC(N)=O)NC(=O)[C@H](Cc2ccc(O)cc2)NC(=O)[C@@H]2CSSC[C@H](NC1=O)C(=O)N[C@@H](CO)C(=O)N[C@@H](C)C(=O)N1CCC[C@@H]1C(=O)N[C@@H]([C@H](C)N)C(=O)N[C@@H](CCCNC(=N)N)C(=O)N[C@@H](Cc1ccc(O)cc1)C(=O)N2 [Example 6] (cyclo(Y[X1]ACSA[dP][Abu(3S-NH2)]RYCYQK[dP]P); disulfide 4-11)	13.5 ± 5	0.07	0.0717	> 50	> 50	–	–	1.0
C[C@@H]1NC(=O)[C@H](Cc2c[nH]cn2)NC(=O)[C@H](Cc2ccc(O)cc2)NC(=O)[C@@H]2CCCN2C(=O)[C@H]2CCCN2C(=O)[C@H](CCCCN)NC(=O)[C@H](Cc2ccc(O)cc2)OC(=O)[C@H](Cc2ccc(O)cc2)NC(=O)[C@@H]2CSSC[C@H](NC1=O)C(=O)N[C@@H](CO)C(=O)N[C@@H](C)C(=O)N1CCC[C@@H]1C(=O)N[C@@H]([C@H](C)N)C(=O)N[C@@H](CCCNC(=N)N)C(=O)N[C@@H](Cc1ccc(O)cc1)C(=O)N2 [Example 4] (cyclo(YHACSA[dP][Abu(3S-NH2)]RYCY[Hpla]K[dP]P); disulfide 4-11)	4.4 ± 1.6	–	–	> 50	> 50	> 4	> 4	1.0
C[C@@H]1NC(=O)[C@H](Cc2c[nH]cn2)NC(=O)[C@H](Cc2ccc(O)cc2)NC(=O)[C@@H]2CCCN2C(=O)[C@H]2CCCN2C(=O)[C@H](CCCCN)NC(=O)[C@H](CCC(N)=O)NC(=O)[C@H](Cc2ccc(O)cc2)OC(=O)[C@@H]2CSSC[C@H](NC1=O)C(=O)N[C@@H](CO)C(=O)N[C@@H](C)C(=O)N1CCC[C@@H]1C(=O)N[C@@H]([C@H](C)N)C(=O)N[C@@H](CCCNC(=N)N)C(=O)N[C@@H](Cc1ccc(O)cc1)C(=O)N2 [Example 3] (cyclo(YHACSA[dP][Abu(3S-NH2)]RYC[Hpla]QK[dP]P); disulfide 4-11)	2.7 ± 1.4	1.35	2.27	> 50	> 50	–	–	0.4
C[C@@H]1NC(=O)[C@H](Cc2c[nH]cn2)NC(=O)[C@H](Cc2ccc(O)cc2)NC(=O)[C@@H]2CCCN2C(=O)[C@H]2CCCN2C(=O)[C@H](CCN)OC(=O)[C@H](CCC(N)=O)NC(=O)[C@H](Cc2ccc(O)cc2)NC(=O)[C@@H]2CSSC[C@H](NC1=O)C(=O)N[C@@H](CCCNC(=N)N)C(=O)N[C@@H](C)C(=O)N1CCC[C@@H]1C(=O)N[C@@H]([C@H](C)N)C(=O)N[C@@H](CCCNC(=N)N)C(=O)N[C@@H](Cc1ccc(O)cc1)C(=O)N2 [Example 8] (cyclo(YHACRA[dP][Abu(3S-NH2)]RYCYQ[X1][dP]P); disulfide 4-11)	82.4 ± 12.8	–	–	> 50	> 50	–	–	0.4

The remaining molecules from weak to strong by IC50 (human CXCR4), led by results:

IC50 (human CXCR4) [nM]	half-life at 10 μM [2] [h]	half-life at 10 μM [3] [h]	GI50 at 48 h (in vitro; African green monkey) [µM]	GI50 at 48 h (in vitro; human) [µM]	Plasmastability human pl. T1/2 [2] [h]	Plasmastability mouse pl. T1/2 [3] [h]	SMILES	Hemolysis at 100 μM [1] [%]
20.8 ± 8.3	1.42	1.23	> 50	> 50	–	–	C[C@@H]1NC(=O)[C@H](CCCNC(=N)N)NC(=O)[C@@H]2CSSC[C@H](NC(=O)[C@H](Cc3ccc(O)cc3)NC(=O)[C@H](CCCNC(=N)N)NC(=O)[C@H]([C@H](C)N)NC(=O)[C@H]3CCCN3C1=O)C(=O)N[C@@H](Cc1ccc(O)cc1)C(=O)N[C@@H](CCC(N)=O)C(=O)N[C@@H](CCCCN)C(=O)N1CCC[C@@H]1C(=O)N1CCC[C@H]1C(=O)N[C@@H](Cc1ccc(O)cc1)C(=O)N[C@@H](Cc1c[nH]cn1)C(=O)O[C@@H](C)C(=O)N2 [Example 9] (cyclo(YH[Lac]CRA[dP][Abu(3S-NH2)]RYCYQK[dP]P); disulfide 4-11)	0.4
16.6 ± 1.5	0.085	0.0883	> 50	> 50	–	–	C[C@@H]1NC(=O)[C@H](Cc2c[nH]cn2)NC(=O)[C@H](Cc2ccc(O)cc2)NC(=O)[C@@H]2CCCN2C(=O)[C@H]2CCCN2C(=O)[C@H](CCN)OC(=O)[C@@H](CCC(N)=O)NC(=O)[C@H](Cc2ccc(O)cc2)NC(=O)[C@@H]2CSSC[C@H](NC1=O)C(=O)N[C@@H](CCCNC(=N)N)C(=O)N[C@@H](C)C(=O)N1CCC[C@@H]1C(=O)N[C@@H]([C@H](C)N)C(=O)N[C@@H](CCCNC(=N)N)C(=O)N[C@@H](Cc1ccc(O)cc1)C(=O)N2 [Example 10] (cyclo(YHACRA[dP][Abu(3S-NH2)]RYCY[dQ][X1][dP]P); disulfide 4-11)	0.3
3.3 ± 1.1	–	–	> 50	> 50	> 4	> 4	C[C@@H]1NC(=O)[C@H](Cc2c[nH]cn2)NC(=O)[C@H](Cc2ccc(O)cc2)OC(=O)[C@@H]2CCCN2C(=O)[C@H]2CCCN2C(=O)[C@H](CCCCN)NC(=O)[C@H](CCC(N)=O)NC(=O)[C@H](Cc2ccc(O)cc2)NC(=O)[C@@H]2CSSC[C@H](NC1=O)C(=O)N[C@@H](CO)C(=O)N[C@@H](C)C(=O)N1CCC[C@@H]1C(=O)N[C@@H]([C@H](C)N)C(=O)N[C@@H](CCCNC(=N)N)C(=O)N[C@@H](Cc1ccc(O)cc1)C(=O)N2 [Example 5] (cyclo([Hpla]HACSA[dP][Abu(3S-NH2)]RYCYQK[dP]P); disulfide 4-11)	1.5
0.7 ± 0.7	–	–	> 50	> 50	> 4	> 4	C[C@@H]1NC(=O)[C@H](Cc2c[nH]cn2)NC(=O)[C@H](Cc2ccc(O)cc2)NC(=O)[C@@H]2CCCN2C(=O)[C@H]2CCCN2C(=O)[C@H](CCCCN)NC(=O)[C@H](CCC(N)=O)NC(=O)[C@H](Cc2ccc(O)cc2)NC(=O)[C@@H]2CSSC[C@H](NC1=O)C(=O)N[C@@H](CO)C(=O)N[C@@H](C)C(=O)N1CCC[C@@H]1C(=O)O[C@@H](CCN)C(=O)N[C@@H](CCCNC(=N)N)C(=O)N[C@@H](Cc1ccc(O)cc1)C(=O)N2 [Example 2]	0.7
